Experimental data reported in patent EP0377642B1, “HERBICIDES FOR WEED CONTROL IN RICE” (E.I. DU PONT DE NEMOURS AND COMPANY, priority 1987, dated 1989).
Like-named read-outs stand apart in the source and are kept apart here.

Legend:
Format in all cases: in vivo
rice [1] = assay: Effects in combination with Thiobencarb and Bensulfuron Methyl on rice growth (Table 22); details: rate 75 g ai/ha; var. Koshihikari, applied 7 days after transplanting, rated 21 days after application
Description: (§1) Methyl 2-[[[[(4-methoxy-6-methyl-1,3,5-triazin-2-yl)amino]carbonyl]amino]sulfonyl]benzoate (Compound 1) and mixtures thereof with other compounds were applied as a spray (using a hand sprayer) to rice (either transplanted or direct seeded) in several rice growing areas in Southeast Asia and in the U.S. Tables 1-28 contain the results of these tests and clearly exemplify the utility of this invention. The details of each application are included in the appropriate table. [drawing 2]

FIMBRISTYLIS MILIACEA [2] = assay: Herbicidal efficacy alone and with 2,4-D in Thailand (Table 3); details: 600 GAI/HA, 6 weeks after application
Description: as §1

Sphenoclea zeylanica [3] = assay: Field test applied at 25 DAS in direct seeded rice (Table 13); details: 1,500 GM.A.I./HA, scale 0-10
Description: as §1

Cyperus iria [4] = assay: as above; details: 1,500 GM.A.I./HA, scale 0-10
Description: as §1

Sphenoclea zeylanica [5] = assay: Field test applied at 18 DAS in direct seeded rice (Table 12); details: 1,500 GM.A.I./HA, scale 0-10
Description: as §1

Jussiaea linifolia = assay: as above; details: 1,500 GM.A.I./HA, scale 0-10
Description: as §1

Cyperus iria [6] = assay: as above; details: 1,500 GM.A.I./HA, scale 0-10
Description: as §1

FIMBRISTYLIS MILIACEA [7] = assay: as above; details: 1,500 GM.A.I./HA, scale 0-10
Description: as §1

direct seeded rice = details: 1,500 GM.A.I./HA; for PHYTO at 2WAA: scale 0-10
Description: as §1

rice [8] = assay: Effects on rice growth in Thailand, phytotoxicity (Table 2); details: 600 GAI/HA, scale 0-10
Description: as §1

rice [9] = assay: Effects on rice growth in Thailand, phytotoxicity (Table 4); details: 600 GAI/HA, scale 0-10
Description: as §1

Sphenoclea zeylanica [10] = assay: Field test applied at 7 DAS in direct seeded rice (Table 11); details: 1,500 GM.A.I./HA, scale 0-10
Description: as §1

Cyperus difformis = assay: as above; details: 1,500 GM.A.I./HA, scale 0-10
Description: as §1

weeds = assay: Greenhouse test of Compound 1 and Compound 2, herbicidal efficacy (Table 26); details: rated 24 days after treatment; for % CONTROL OR INJURY AT: Alisma triviale; for % CONTROL OR INJURY AP: Alternanthera philoxeroides; for % CONTROL OR INJURY CD: Cyperus difformis; for % CONTROL OR INJURY SR: Sagittaria rigida
Description: as §1

[11] = test system: transplanted rice (var. Nihonbare); assay: Crop tolerance of transplanted rice, combinations with Thiobencarb, Dimepiperate, Esprocarb and Dymron (Table 15); details: in vivo
Description: as §1
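Throughout, for YIELD: yield in Tons/ha.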

With `COC(=O)c1ccccc1CS(=O)(=O)NC(=O)Nc1nc(OC)cc(OC)n1` the “CROP TOLERANCE DW (Dry weight relative to untreated check)” value (rice [1]) was 76%, the “CROP TOLERANCE PH (Plant height relative to untreated check)” value (rice [1]) was 84% and the “CROP TOLERANCE VA (Visual crop injury)” value (rice [1]) was 3.5%.

In the case of `CCCCOC(=O)COc1ccc(Cl)cc1Cl` [2,4-D (BUTYL ESTER), reference compound], the “FIMBRISTYLIS MILIACEA CONTROL” value (FIMBRISTYLIS MILIACEA [2]; applied 7 DAS) is reported as 94%, the “FIMBRISTYLIS MILIACEA CONTROL” value (FIMBRISTYLIS MILIACEA [2]; applied 14 DAS) is reported as 98% and the “FIMBRISTYLIS MILIACEA CONTROL” value (FIMBRISTYLIS MILIACEA [2]; applied 21 DAS) is reported as 60%. The “FIMBRISTYLIS MILIACEA CONTROL” value (FIMBRISTYLIS MILIACEA [2]; applied 28 DAS) was 43%.

`O=C([O-])COc1ccc(Cl)cc1Cl.[Na+]` [2,4-D (SODIUM SALT), 2,4-dichlorophenoxyacetic acid, sodium salt] was tested, and the “WEED CONTROL at 6 WAA SZ” value (Sphenoclea zeylanica [3]) was 6.67, the “WEED CONTROL at 6 WAA CI” value (Cyperus iria [4]) was 10 and the “WEED CONTROL at 6 WAA SZ” value (Sphenoclea zeylanica [5]) was 4.67. The “WEED CONTROL at 6 WAA JL” value (Jussiaea linifolia) was 10, the “WEED CONTROL at 6 WAA CI” value (Cyperus iria [6]) was 9.33 and the “WEED CONTROL at 6 WAA FM” value (FIMBRISTYLIS MILIACEA [7]) was 9.33. For the same compound, the YIELD (direct seeded rice; 7 DAS) was 4.13 TONS/HA, the “PHYTO at 2WAA” value (direct seeded rice; 7 DAS) was 0 and the YIELD (direct seeded rice; 18 DAS) was 4.59 TONS/HA. For the same compound, the “PHYTO at 2WAA” value (direct seeded rice; 18 DAS) was 0, the “FIMBRISTYLIS MILIACEA CONTROL” value (FIMBRISTYLIS MILIACEA [2]; applied 7 DAS) was 96% and the “FIMBRISTYLIS MILIACEA CONTROL” value (FIMBRISTYLIS MILIACEA [2]; applied 14 DAS) was 95%. For the same compound, the “FIMBRISTYLIS MILIACEA CONTROL” value (FIMBRISTYLIS MILIACEA [2]; applied 21 DAS) was 93%, the “FIMBRISTYLIS MILIACEA CONTROL” value (FIMBRISTYLIS MILIACEA [2]; applied 28 DAS) was 98% and the PHYTOTOXICITY (rice [8]; applied 7 DAS) was 2.33. For the same compound, the PHYTOTOXICITY (rice [8]; applied 14 DAS) was 1.33, the PHYTOTOXICITY (rice [8]; applied 21 DAS) was 0 and the PHYTOTOXICITY (rice [8]; applied 28 DAS) was 0. For the same compound, the PHYTOTOXICITY (rice [9]; applied 7 DAS) was 5.0, the PHYTOTOXICITY (rice [9]; applied 14 DAS) was 3.67 and the PHYTOTOXICITY (rice [9]; applied 21 DAS) was 3.0. For the same compound, the PHYTOTOXICITY (rice [9]; applied 28 DAS) was 1, the “WEED CONTROL at 6 WAA SZ” value (Sphenoclea zeylanica [10]) was 6.0 and the “WEED CONTROL at 6 WAA CD” value (Cyperus difformis) was 10.

For `COC(=O)c1ccccc1S(=O)(=O)NC(=O)Nc1nc(OC)cc(OC)n1` [Compound 2, methyl 2-[[[[(4,6-dimethoxy-2-pyrimidinyl)amino]carbonyl]amino]sulfonyl]benzoate], the “% CONTROL OR INJURY AT” value (weeds; rate 1 g ai/ha) was 95%, the “% CONTROL OR INJURY AT” value (weeds; rate 2 g ai/ha) was 95% and the “% CONTROL OR INJURY AT” value (weeds; rate 4 g ai/ha) was 95%. The “% CONTROL OR INJURY AT” value (weeds; rate 8 g ai/ha) was 95%, the “% CONTROL OR INJURY AP” value (weeds; rate 1 g ai/ha) was 0% and the “% CONTROL OR INJURY AP” value (weeds; rate 2 g ai/ha) was 0%. The “% CONTROL OR INJURY AP” value (weeds; rate 4 g ai/ha) was 20%, the “% CONTROL OR INJURY AP” value (weeds; rate 8 g ai/ha) was 30% and the “% CONTROL OR INJURY CD” value (weeds; rate 1 g ai/ha) was 70%. For the same compound, the “% CONTROL OR INJURY CD” value (weeds; rate 2 g ai/ha) was 80%, the “% CONTROL OR INJURY CD” value (weeds; rate 4 g ai/ha) was 100% and the “% CONTROL OR INJURY CD” value (weeds; rate 8 g ai/ha) was 100%. For the same compound, the “% CONTROL OR INJURY SR” value (weeds; rate 1 g ai/ha) was 0%, the “% CONTROL OR INJURY SR” value (weeds; rate 2 g ai/ha) was 0% and the “% CONTROL OR INJURY SR” value (weeds; rate 4 g ai/ha) was 80%. The “% CONTROL OR INJURY SR” value (weeds; rate 8 g ai/ha) was 80%.

With `CC(C)(SC(=O)N1CCCCC1)c1ccccc1` [Dimepiperate, S-1-methyl-1-phenylethylpiperidine-1-carbothioate] the “CROP TOLERANCE (Nihonbare) PH, plant height relative to untreated check” value [11] was 102% and the “CROP TOLERANCE (Nihonbare) VA, visual crop injury” value [11] was 0%.
